# Data reported in US11124537B2, “Inhibitors of glucocorticoid receptor” (ORIC Pharmaceuticals, Inc., priority 2015, dated 2021).
# Target: GR (Homo sapiens (Human), UniProt P04150)
# Experiment: In Vitro GR Luciferase Reporter Assay
# Assay type: cell-based
# Conditions: CHO-K1-GR-MMTV-Luc reporter cells, antagonist assay, 10 nM Dexamethasone, 18-24 hours
# Source text: Example 4: In Vitro GR Luciferase Reporter Assay
# Cell Line: CHO-K1-GR-MMTV-Luc reporter cells
# Culture Media: DMEM (with phenol red)+10% FBS
# Assay Media: DMEM (without phenol red)+10% CSS
# Culture CHO-K1-GR-MMTV-Luc reporter cells in 15 cm plates in Culture Media at conditions less than 90% confluence.
# Prepare 200×DMSO 1:5 serial dilutions of control and test compounds in 96-well non-sterile V bottom plate in DMSO, 8 serial dilutions for each compound.
# Prepare 5× Assay Media diluted compound serial dilutions in 96-well non-sterile V bottom plate: Add 97.5 uL/well of Assay Media into 96-well then add 2.5 ul of 200× concentration of compounds and mix well.
# Seed cells for Antagonist Assay: […] CHO-K1-GR-MMTV-Luc reporter cells were seeded in a Corning 3707 flat clear bottom 384-well white TC plate in 20 ul of Assay Media containing 12.5 nM Dexamethasone (final concentration=10 nM).
# Add compounds: 5 ul of assay media diluted compounds were added to appropriate wells and followed a quick spin (1000 rpm, 10 sec) to bring media and cells to the bottom of plate. The plates were covered with SealMate film to avoid evaporation and placed in 37° C. incubator for approximately 18-24 hours.
# Read plates: Equilibrate appropriate amount of Promega OneGlo luciferase reagent to room temperature. Remove the plates from incubator and add 25 uL of OneGlo reagent/well by multiple channel pipette and read the plates with Tecan F500 luminometer within 3 minutes.
# The ability of the compounds disclosed herein to inhibit GR activity was quantified and the respective IC50 value was determined. Table 3 provides the cellular IC50 values of various substituted steroidal compounds disclosed herein.
# Chain of GR (P04150 whole entry): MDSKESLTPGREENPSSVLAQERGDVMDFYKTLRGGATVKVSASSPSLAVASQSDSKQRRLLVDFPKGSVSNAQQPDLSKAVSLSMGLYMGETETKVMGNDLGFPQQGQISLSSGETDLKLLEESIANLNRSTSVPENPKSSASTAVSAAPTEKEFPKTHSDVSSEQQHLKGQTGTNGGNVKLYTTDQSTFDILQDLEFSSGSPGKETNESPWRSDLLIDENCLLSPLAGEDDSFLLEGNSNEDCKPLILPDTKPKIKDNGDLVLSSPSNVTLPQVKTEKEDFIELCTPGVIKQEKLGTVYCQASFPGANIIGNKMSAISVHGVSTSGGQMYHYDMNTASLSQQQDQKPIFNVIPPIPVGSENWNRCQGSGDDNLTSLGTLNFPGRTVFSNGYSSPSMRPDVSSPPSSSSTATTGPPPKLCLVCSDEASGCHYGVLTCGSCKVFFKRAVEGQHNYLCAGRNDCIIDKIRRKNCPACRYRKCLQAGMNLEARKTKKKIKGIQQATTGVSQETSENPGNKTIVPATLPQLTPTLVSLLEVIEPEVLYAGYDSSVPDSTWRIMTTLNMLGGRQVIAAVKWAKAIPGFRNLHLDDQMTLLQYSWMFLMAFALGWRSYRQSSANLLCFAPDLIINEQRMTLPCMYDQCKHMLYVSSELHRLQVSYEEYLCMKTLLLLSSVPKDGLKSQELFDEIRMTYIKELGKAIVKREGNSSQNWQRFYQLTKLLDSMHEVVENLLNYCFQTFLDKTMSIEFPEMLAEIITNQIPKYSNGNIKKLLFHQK
row,SMILES,IC50
1,COC(C)(C)C#C[C@]1(O)CC[C@H]2[C@@H]3CCC4=CC(=O)CCC4=C3[C@@H](c3ccc(C(C)(C)C)cc3)C[C@@]21C,≤ 100 nM
2,CCN(c1ccc([C@H]2C[C@@]3(C)[C@@H](CC[C@@]3(O)C#CC(C)(C)C)[C@@H]3CCC4=CC(=O)CCC4=C32)cc1)C(C)C,> 100 nM
3,Cc1ccc([C@H]2C[C@@]3(C)[C@@H](CC[C@@]3(O)C#CC(C)(C)C)[C@@H]3CCC4=CC(=O)CCC4=C32)cc1,≤ 100 nM
4,CC(C)(C)C#C[C@]1(O)CC[C@H]2[C@@H]3CCC4=CC(=O)CCC4=C3[C@@H](c3ccc(C4(C)COC4)cc3)C[C@@]21C,≤ 100 nM
5,CN(C)c1ccc([C@H]2C[C@@]3(C)[C@@H](CC[C@@]3(O)C#Cc3ccc(C#N)cc3)[C@@H]3CCC4=CC(=O)CCC4=C32)cc1,≤ 100 nM
6,C[C@]12C[C@H](c3ccc4c(c3)OCO4)C3=C4CCC(=O)C=C4CC[C@H]3[C@@H]1CC[C@@]2(O)C#Cc1ccc(S(C)(=O)=O)cc1,≤ 100 nM
7,COCCN(C)c1ccc([C@H]2C[C@@]3(C)[C@@H](CC[C@@]3(O)C#CC(C)(C)OC)[C@@H]3CCC4=CC(=O)CCC4=C32)cc1,≤ 100 nM
8,Cc1cc([C@H]2C[C@@]3(C)[C@@H](CC[C@@]3(O)C#CC(C)(C)C)[C@@H]3CCC4=CC(=O)CCC4=C32)ccc1N(C)C [drawing 283],≤ 100 nM
9,CC(C)Oc1ccc([C@H]2C[C@@]3(C)[C@@H](CC[C@@]3(O)C#CC(C)(C)C)[C@@H]3CCC4=CC(=O)CCC4=C32)cc1,≤ 100 nM
10,CN(C)c1ccc([C@H]2C[C@@]3(C)[C@@H](CC[C@@]3(O)C#CCO)[C@@H]3CCC4=CC(=O)CCC4=C32)cc1,> 100 nM
11,CN(C(=O)CO)c1ccc([C@H]2C[C@@]3(C)[C@@H](CC[C@@]3(O)C#CC(C)(C)C)[C@@H]3CCC4=CC(=O)CCC4=C32)cc1,> 100 nM
12,CN(CC1CC1)c1ccc([C@H]2C[C@@]3(C)[C@@H](CC[C@@]3(O)C#CC(C)(C)C)[C@@H]3CCC4=CC(=O)CCC4=C32)cc1,> 100 nM
13,CN(C)c1ccc([C@H]2C[C@@]3(C)[C@@H](CC[C@@]3(O)C#Cc3ccc(C(C)(C)C)cc3)[C@@H]3CCC4=CC(=O)CCC4=C32)cc1,> 100 nM
14,CCc1ccc([C@H]2C[C@@]3(C)[C@@H](CC[C@@]3(O)C#Cc3ccccc3)[C@@H]3CCC4=CC(=O)CCC4=C32)cc1,≤ 100 nM
15,COC1CN(c2ccc([C@H]3C[C@@]4(C)[C@@H](CC[C@@]4(O)C#CC(C)(C)OC)[C@@H]4CCC5=CC(=O)CCC5=C43)cc2)C1,> 100 nM
16,CC(C)c1ccc([C@H]2C[C@@]3(C)[C@@H](C[C@@H](C)[C@@]3(O)C#CC(C)(C)C)[C@@H]3CCC4=CC(=O)CCC4=C32)cc1,> 100 nM
17,CCc1ccc([C@H]2C[C@@]3(C)[C@@H](CC[C@@]3(O)C#CC(C)(C)C)[C@@H]3CCC4=CC(=O)CCC4=C32)cc1,≤ 100 nM
18,COCCN(C)c1ccc([C@H]2C[C@@]3(C)[C@@H](CC[C@@]3(O)C#CC(C)(C)C)[C@@H]3CCC4=CC(=O)CCC4=C32)cc1,≤ 100 nM
19,COc1ccc([C@H]2C[C@@]3(C)[C@@H](CC[C@@]3(O)C#CC(C)(C)C)[C@@H]3CCC4=CC(=O)CCC4=C32)cc1,≤ 100 nM
20,CN(C)c1ccc([C@H]2C[C@@]3(C)[C@@H](CC[C@@]3(O)C#CC(C)(C)C)[C@@H]3CCC4=CC(=O)CCC4=C32)cc1,≤ 100 nM
21,CC(C)(C)C#C[C@]1(O)CC[C@H]2[C@@H]3CCC4=CC(=O)CCC4=C3[C@@H](c3ccc(C4CC4)cc3)C[C@@]21C,≤ 100 nM
22,CC(C)(C)C#C[C@]1(O)CC[C@H]2[C@@H]3CCC4=CC(=O)CCC4=C3[C@@H](c3ccc(N)cc3)C[C@@]21C,> 100 nM

# Results, then the compound that gave them:
row,IC50,SMILES
1,≤ 100 nM,CC(C)(C)C#C[C@]1(O)CC[C@H]2[C@@H]3CCC4=CC(=O)CCC4=C3[C@@H](c3ccc(N4CCN(C(=O)CO)CC4)cc3)C[C@@]21C
2,≤ 100 nM,Cc1ccc([C@H]2C[C@@]3(C)[C@@H](CC[C@@]3(O)C#CC3CC3)[C@@H]3CCC4=CC(=O)CCC4=C32)cc1F
3,> 100 nM,Cc1ccc(-c2cc(F)c([C@H]3C[C@@]4(C)[C@@H](CC[C@@]4(O)C#CC(C)(C)C)[C@@H]4CCC5=CC(=O)CCC5=C43)cc2F)cn1
4,≤ 100 nM,CN(C)c1cc(F)c([C@H]2C[C@@]3(C)[C@@H](CC[C@@]3(O)C#CC3CC3)[C@@H]3CCC4=CC(=O)CCC4=C32)cc1F
5,≤ 100 nM,CC(=O)N1CCN(c2ccc([C@H]3C[C@@]4(C)[C@@H](CC[C@@]4(O)C#CC(C)(C)C)[C@@H]4CCC5=CC(=O)CCC5=C43)cc2)CC1
6,≤ 100 nM,COc1ccc([C@H]2C[C@@]3(C)[C@@H](CC[C@@]3(O)C#CC(C)C)[C@@H]3CCC4=CC(=O)CCC4=C32)cc1F
7,≤ 100 nM,CN(C)c1ccc([C@H]2C[C@@]3(C)[C@@H](CC[C@@]3(O)C#CC3(C)COC3)[C@@H]3CCC4=CC(=O)CCC4=C32)cc1 [drawing 354]
8,≤ 100 nM,C[C@]12C[C@H](c3ccc4c(c3)OCO4)C3=C4CCC(=O)C=C4CC[C@H]3[C@@H]1CC[C@@]2(O)C#CC1CC1
9,≤ 100 nM,CN(C)c1ccc([C@H]2C[C@@]3(C)[C@@H](CC[C@@]3(O)C#CC(C)(C)C)[C@@H]3CCC4=CC(=O)CCC4=C32)cc1F [drawing 284]
10,≤ 100 nM,Cc1c(F)cc([C@H]2C[C@@]3(C)[C@@H](CC[C@@]3(O)C#CC(C)C)[C@@H]3CCC4=CC(=O)CCC4=C32)cc1F
11,≤ 100 nM,CCC#C[C@]1(O)CC[C@H]2[C@@H]3CCC4=CC(=O)CCC4=C3[C@@H](c3ccc4c(c3)OCCO4)C[C@@]21C [drawing 324]
12,≤ 100 nM,COC(C)(C)C#C[C@]1(O)CC[C@H]2[C@@H]3CCC4=CC(=O)CCC4=C3[C@@H](c3ccc(N4CCCC4)cc3)C[C@@]21C [drawing 340]
13,≤ 100 nM,CN(C)c1cc(F)c([C@H]2C[C@@]3(C)[C@@H](CC[C@@]3(O)C#Cc3ccccc3)[C@@H]3CCC4=CC(=O)CCC4=C32)c(F)c1
14,≤ 100 nM,CCN(C)c1cc(F)c([C@H]2C[C@@]3(C)[C@@H](CC[C@@]3(O)C#CC(C)C)[C@@H]3CCC4=CC(=O)CCC4=C32)c(F)c1
15,≤ 100 nM,Cc1ccc([C@H]2C[C@@]3(C)[C@@H](CC[C@@]3(O)C#CC(C)C)[C@@H]3CCC4=CC(=O)CCC4=C32)cc1F
16,≤ 100 nM,CC(C)(C)C#C[C@]1(O)CC[C@H]2[C@@H]3CCC4=CC(=O)CCC4=C3[C@@H](c3ccc(N4CCCC4)cc3)C[C@@]21C [drawing 276]

row,IC50,SMILES
1,≤ 100 nM,CC(C)(C)C#C[C@]1(O)CC[C@H]2[C@@H]3CCC4=CC(=O)CCC4=C3[C@@H](c3ccc(N4CCS(=O)(=O)CC4)cc3)C[C@@]21C
2,> 100 nM,Cc1c(F)cc([C@H]2C[C@@]3(C)[C@@H](CC[C@@]3(O)C#Cc3ccccn3)[C@@H]3CCC4=CC(=O)CCC4=C32)cc1F
3,> 100 nM,CN(C)c1cc([C@H]2C[C@@]3(C)[C@@H](CC[C@@]3(O)C#CC(F)(F)F)[C@@H]3CCC4=CC(=O)CCC4=C32)ccc1Cl
4,> 100 nM,CC(C)(C)C#C[C@]1(O)CC[C@H]2[C@@H]3CCC4=CC(=O)CCC4=C3[C@@H](c3cccc(C4CC4)c3)C[C@@]21C [drawing 279]
5,≤ 100 nM,CN(C)c1cc(F)c([C@H]2C[C@@]3(C)[C@@H](CC[C@@]3(O)C#CC(C)(C)C)[C@@H]3CCC4=CC(=O)CCC4=C32)cc1F [drawing 304]
6,≤ 100 nM,CC(C)C#C[C@]1(O)CC[C@H]2[C@@H]3CCC4=CC(=O)CCC4=C3[C@@H](c3ccc(N(C)C)c(F)c3)C[C@@]21C
7,≤ 100 nM,CC(C)C#C[C@]1(O)CC[C@H]2[C@@H]3CCC4=CC(=O)CCC4=C3[C@@H](c3c(F)cc(N4CCOCC4)cc3F)C[C@@]21C [drawing 294]
8,≤ 100 nM,CC(C)C#C[C@]1(O)CC[C@H]2[C@@H]3CCC4=CC(=O)CCC4=C3[C@@H](c3cc(F)c(N(C)C)cc3F)C[C@@]21C
9,≤ 100 nM,CN(C)c1ccc([C@H]2C[C@@]3(C)[C@@H](CC[C@@]3(O)C#CC3CC3)[C@@H]3CCC4=CC(=O)CCC4=C32)c(F)c1F [drawing 303]
10,≤ 100 nM,CC(C)C#C[C@]1(O)CC[C@H]2[C@@H]3CCC4=CC(=O)CCC4=C3[C@@H](c3c(F)cc(N(C)C)cc3F)C[C@@]21C
11,≤ 100 nM,CC(C)(C)C#C[C@]1(O)CC[C@H]2[C@@H]3CCC4=CC(=O)CCC4=C3[C@@H](c3ccc4c(c3)OCO4)C[C@@]21C [drawing 331]
12,≤ 100 nM,CCN(C)c1cc(F)c([C@H]2C[C@@]3(C)[C@@H](CC[C@@]3(O)C#CC3CC3)[C@@H]3CCC4=CC(=O)CCC4=C32)c(F)c1
13,> 100 nM,Cc1c(F)cc([C@H]2C[C@@]3(C)[C@@H](CC[C@@]3(O)C#Cc3ccc(N(C)C)cc3)[C@@H]3CCC4=CC(=O)CCC4=C32)cc1F
14,≤ 100 nM,Cc1c(F)cc([C@H]2C[C@@]3(C)[C@@H](CC[C@@]3(O)C#CC3CC3)[C@@H]3CCC4=CC(=O)CCC4=C32)cc1F
15,≤ 100 nM,CN(C)c1c(F)cc([C@H]2C[C@@]3(C)[C@@H](CC[C@@]3(O)C#CC3CC3)[C@@H]3CCC4=CC(=O)CCC4=C32)cc1F
